A word on the IC50: it is the concentration needed to halve the response being measured. A lower IC50 goes with higher potency. A word on the residual activity: it is the share of the control activity or signal that is left under treatment. Low readings indicate a large loss of activity, high ones a small loss of activity.

Structures are written as SMILES.

Assay [1] can be described thus: Inhibition of synthetic melanin polymerization after 30 to 60 mins by UV-vis spectroscopic analysis. The assay is classed as functional.
A short description of assay [2]: Inhibition of synthetic melanin polymerization at 2 mM after 30 to 60 mins by UV-vis spectroscopic analysis relative to control. The assay is classed as functional. The settings on record: values are per cent of control.

Regarding `O=[N+]([O-])c1ccc(B(O)O)cc1`, 550 µM corresponded to half-maximal inhibition in assay [1] (IC50). In assay [2], this molecule showed a residual activity of 21.5%.

In turn, `COc1ccc(B(O)O)cc1` came in with an IC50 in assay [1] of 6200 µM. This molecule also had a residual activity in assay [2] of 66.1%.

With `CC(=O)c1ccc(B(O)O)cc1`, half-maximal inhibition in assay [1] (IC50) required 690 µM. The molecule also came in with a residual activity in assay [2] of 30.5%.

`OB(O)c1ccccc1` [PHENYLBORONIC ACID] registered an IC50 in assay [1] of 1840 µM. The molecule further showed a residual activity in assay [2] of 51.7%.

Consider `OB(O)c1ccc(Cl)cc1`, for which it took 1310 µM to reach half-maximal inhibition in assay [1] (IC50). The molecule further had a residual activity in assay [2] of 41.2%.

For the molecule `OB(O)c1ccc(F)cc1`, in assay [1], the IC50 stood at 1840 µM. The molecule further came in with a residual activity in assay [2] of 49.7%.

Consider `OB(O)c1ccc(C(F)(F)F)cc1`, for which the IC50 in assay [1] came to 800 µM. Also, the residual activity in assay [2] amounted to 26.9%.

Consider `Cc1ccc(B(O)O)cc1` [TOLYL BORONIC ACID], for which, in assay [1], the midpoint of inhibition, the IC50, lay at 4450 µM. This molecule also returned a residual activity in assay [2] of 62.8%.

Take `OB(O)c1ccc(Br)cc1`: the midpoint of inhibition in assay [1], the IC50, lay at 1030 µM. The same molecule came in with a residual activity in assay [2] of 37.7%.

`N#Cc1ccc(B(O)O)cc1` returned an IC50 in assay [1] of 590 µM. Besides, the residual activity in assay [2] turned out to be 19.4%.

The record behind these values is ChEMBL document CHEMBL1208734, “Aryl boronic acid inhibition of synthetic melanin polymerization” (Bioorg Med Chem Lett, 2010).
